Tested on: 695427-040-R-J1-PDC complex spheroids, viability percent T/C
Assay: Anticancer human tumor 695427-040-R-J1-PDC patient-derived colon adenocarcinoma cell line growth inhibition [GQUAD]
Conditions: for IC50: curve of first compound; for viability, T/C: stronger effect = lower value
Outline: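 Tumor cells were grown as complex spheroids with HUVEC endothelial cells and mesenchymal stem cells as stroma. G-quadruplex stabilizers were combined with targeted agents over half-log dilutions from near the clinical Cmax, or from 10 microM.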

[1] = second compound 0.0316 µM, first compound 0.0316 µM
[2] = second compound 0.0316 µM, first compound 0.316 µM
[3] = second compound 0.1 µM, first compound 0.0316 µM
[4] = second compound 0.1 µM, first compound 0.316 µM
[5] = second compound 0.316 µM, first compound 0.0316 µM
[6] = second compound 0.316 µM, first compound 0.316 µM
[7] = second compound 1 µM, first compound 0.0316 µM
[8] = second compound 1 µM, first compound 0.316 µM
[9] = second compound 3.16 µM, first compound 0.0316 µM
[10] = second compound 3.16 µM, first compound 0.316 µM
[11] = second compound 10 µM, first compound 0.0316 µM
[12] = second compound 10 µM, first compound 0.316 µM
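Note: spheroids exposed to compounds for seven days before readout.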

SMILES: CCCS(=O)(=O)Nc1ccc(F)c(C(=O)c2c[nH]c3ncc(-c4ccc(Cl)cc4)cc23)c1F + Cc1cnc(CNC(=O)c2c(=O)c3ccc(N4CCCN(C)CC4)nc3n3c2sc2ccccc23)cn1
- IC50 (second compound 0.0316 µM): 8.41 µM
- IC50 (second compound 0.1 µM): > 10 µM
- IC50 (second compound 0.316 µM): > 10 µM
- IC50 (second compound 1 µM): 6.32 µM
- IC50 (second compound 3.16 µM): 3.27 µM
- IC50 (second compound 10 µM): < 0.0316 µM
- viability, T/C [1]: 101%
- viability, T/C (second compound 0.0316 µM, first compound 0.1 µM): 93.9%
- viability, T/C [2]: 107%
- viability, T/C (second compound 0.0316 µM, first compound 1 µM): 96%
- viability, T/C (second compound 0.0316 µM, first compound 3.16 µM): 110%
- viability, T/C (second compound 0.0316 µM, first compound 10 µM): 40.9%
- viability, T/C [3]: 105%
- viability, T/C (second compound 0.1 µM, first compound 0.1 µM): 70.4%
- viability, T/C [4]: 78.9%
- viability, T/C (second compound 0.1 µM, first compound 1 µM): 82.4%
- viability, T/C (second compound 0.1 µM, first compound 3.16 µM): 98.1%
- viability, T/C (second compound 0.1 µM, first compound 10 µM): 52.8%
- viability, T/C [5]: 85%
- viability, T/C (second compound 0.316 µM, first compound 0.1 µM): 64.3%
- viability, T/C [6]: 82.9%
- viability, T/C (second compound 0.316 µM, first compound 1 µM): 91.3%
- viability, T/C (second compound 0.316 µM, first compound 3.16 µM): 101%
- viability, T/C (second compound 0.316 µM, first compound 10 µM): 55.1%
- viability, T/C [7]: 64.3%
- viability, T/C (second compound 1 µM, first compound 0.1 µM): 76.5%
- viability, T/C [8]: 74.1%
- viability, T/C (second compound 1 µM, first compound 1 µM): 67.3%
- viability, T/C (second compound 1 µM, first compound 3.16 µM): 96.4%
- viability, T/C (second compound 1 µM, first compound 10 µM): 33%
- viability, T/C [9]: 43.9%
- viability, T/C (second compound 3.16 µM, first compound 0.1 µM): 42.7%
- viability, T/C [10]: 55.2%
- viability, T/C (second compound 3.16 µM, first compound 1 µM): 63.4%
- viability, T/C (second compound 3.16 µM, first compound 3.16 µM): 52.7%
- viability, T/C (second compound 3.16 µM, first compound 10 µM): 0.43%
- viability, T/C [11]: 32.7%
- viability, T/C (second compound 10 µM, first compound 0.1 µM): 34.5%
- viability, T/C [12]: 38.7%
- viability, T/C (second compound 10 µM, first compound 1 µM): 34.6%
- viability, T/C (second compound 10 µM, first compound 3.16 µM): 22.8%
- viability, T/C (second compound 10 µM, first compound 10 µM): 0.26%

SMILES: Cc1[nH]c2ccccc2c1CCNCc1ccc(/C=C/C(=O)NO)cc1 + Cc1cnc(CNC(=O)c2c(=O)c3ccc(N4CCCN(C)CC4)nc3n3c2sc2ccccc23)cn1
- IC50 (second compound 0.0316 µM): > 0.316 µM
- IC50 (second compound 0.1 µM): > 0.316 µM
- IC50 (second compound 0.316 µM): > 0.316 µM
- IC50 (second compound 1 µM): > 0.316 µM
- IC50 (second compound 3.16 µM): < 0.000999 µM
- IC50 (second compound 10 µM): < 0.000999 µM
- viability, T/C (second compound 0.0316 µM, first compound 0.000999 µM): 108%
- viability, T/C (second compound 0.0316 µM, first compound 0.00316 µM): 89.4%
- viability, T/C (second compound 0.0316 µM, first compound 0.00999 µM): 105%
- viability, T/C [1]: 87.8%
- viability, T/C (second compound 0.0316 µM, first compound 0.0999 µM): 86.9%
- viability, T/C [2]: 80.5%
- viability, T/C (second compound 0.1 µM, first compound 0.000999 µM): 90.7%
- viability, T/C (second compound 0.1 µM, first compound 0.00316 µM): 84%
- viability, T/C (second compound 0.1 µM, first compound 0.00999 µM): 84.3%
- viability, T/C [3]: 80.5%
- viability, T/C (second compound 0.1 µM, first compound 0.0999 µM): 94.8%
- viability, T/C [4]: 65.5%
- viability, T/C (second compound 0.316 µM, first compound 0.000999 µM): 74.9%
- viability, T/C (second compound 0.316 µM, first compound 0.00316 µM): 80.8%
- viability, T/C (second compound 0.316 µM, first compound 0.00999 µM): 85.5%
- viability, T/C [5]: 85%
- viability, T/C (second compound 0.316 µM, first compound 0.0999 µM): 90.4%
- viability, T/C [6]: 58.1%
- viability, T/C (second compound 1 µM, first compound 0.000999 µM): 50.9%
- viability, T/C (second compound 1 µM, first compound 0.00316 µM): 73.3%
- viability, T/C (second compound 1 µM, first compound 0.00999 µM): 69.2%
- viability, T/C [7]: 66.6%
- viability, T/C (second compound 1 µM, first compound 0.0999 µM): 67.5%
- viability, T/C [8]: 39%
- viability, T/C (second compound 3.16 µM, first compound 0.000999 µM): 41.6%
- viability, T/C (second compound 3.16 µM, first compound 0.00316 µM): 51.4%
- viability, T/C (second compound 3.16 µM, first compound 0.00999 µM): 52.9%
- viability, T/C [9]: 46.1%
- viability, T/C (second compound 3.16 µM, first compound 0.0999 µM): 43.1%
- viability, T/C [10]: 9.89%
- viability, T/C (second compound 10 µM, first compound 0.000999 µM): 21.6%
- viability, T/C (second compound 10 µM, first compound 0.00316 µM): 31.5%
- viability, T/C (second compound 10 µM, first compound 0.00999 µM): 32%
- viability, T/C [11]: 31.1%
- viability, T/C (second compound 10 µM, first compound 0.0999 µM): 14.5%
- viability, T/C [12]: 0.3%

— PubChem BioAssay AID2060492 (Molecular Pharmacology Branch, DTP, NCI, 2025)
